These are literature values, as cited in publication PMC7866862, “Screening, Optimization, and Bioavailability Research of Natural Deep Eutectic Solvent Extracts from Radix Pueraria” (Molecules, 2021).

On the set-up of data set [1]: method as in PMID 30275390. The conditions noted are these: oral, NSSPE study.
On the set-up of data set [2]: method as in PMID 28165806.

Turning to `O=c1c(-c2ccc(O)cc2)coc2c([C@@H]3O[C@H](CO)[C@@H](O)[C@H](O)[C@H]3O)c(O)ccc12` [PUE, 8-β-D-glucopyranose-4′,7-dihydroxyisoflavone], the “Cmax of PUE” value in data set [1] is 634.17 ng/mL. For the same compound, in data set [2], the “Oral bioavailability of PUE” value is reported as “about 7%”.
